Reference: patent publication US11123340B2, “Small-molecule UT-A-selective urea transport inhibitors” (The Regents of the University of California, priority 2014, dated 2021)

Columns and labels:
PIM-1 kinase = PIM-1 kinase (Homo sapiens, UniProt P11309); settings: Ren et al. (2011); cited from earlier work
MDCK cells = assay: Cell toxicity, Alamar blue assay; assay type: cell-based, canine; settings: 24 h, up to 25 μM
Method: (§1) MDCK cells on black 96-well Costar microplates with clear plastic bottoms were cultured for 24 h at 37° C. and incubated with test compounds (0 to 25 μM) for 24 h. Cell viability was assayed using AlamarBlue (Pierce, Rockford, Ill.) in which the reagent was added to each well, incubated for 30 min, and absorbance measured at 590 nm. For short-circuit current measurement, snapwell inserts containing MDCK cells were mounted on Ussing chambers. Test compounds (20 μM) were incubated with MDCK cells at both apical and basolateral sides for 10 min at 37° C. prior to addition of 20 μM forskolin and then 100 μM ATP. The apical and basolateral chambers contained identical solutions: 120 mM NaCl, 5 mM KCl, 1 mM MgCl2, 1 mM CaCl2, 5 mM HEPES, 25 mM NaHCO3 and 10 mM glucose. Solutions were bubbled with 5% CO2/95% O2 and maintained at 37° C. […]
(§2) Compound toxicity was evaluated by compound incubation for 24 h with MDCK cell cultures followed by Alamar blue assay. […] To assess potential ion channel off-target effects, short-circuit current was measured in MDCK cells in response to cAMP (forskolin) and calcium (ATP) agonists (FIG. 5C, right), which depends on the actions of multiple anion (CFTR, calcium-activated chloride channels) and cation (K^+, Na^+) channels.

[1] = tested on: multiple anion (CFTR, calcium-activated chloride channels) and cation (K+, Na+) channels; assay: Short-circuit current in MDCK cells (ion channel off-target effects); assay type: cell-based, canine; settings: 20 μM inhibitor, forskolin and ATP
Method: as §1, §2

rats = assay: Diuretic studies in rats; assay type: in vivo, rat; settings: for urine osmolality / urine volume: control, hydrated rats
Method: Compound effects on urine output, osmolality and urea concentration were investigated in two conditions. Rats were placed in metabolic cages with water and food available ad libitum and spontaneously voided urine was collected for 3 h. Rats were then injected intravenously with 20 mg/kg UTAinh-E02 or UTAinh-F11 in formulations listed above (or vehicle alone), and returned to the metabolic cages without access to water, but free access to food. Spontaneously voided urine was collected every 3 h for a 6-h period. In some experiments, rats were administered dDAVP (4 μg/kg, IP) just before compound (or vehicle) injection and 3 h later. […] Urine osmolality was measured in water-diluted urine samples by freezing-point osmometry (Micro-osmometer; Precision Systems, Natick, Mass.). Urea concentration was determined by a colorimetric enzymatic assay as described above.
Diuretic efficacy was tested in rats under two different conditions. Inhibitor effects on maximum urinary concentrating ability was studied in rats administered the V2-selective agonist dDAVP at 4 μg/kg every 3 hours. Inhibitors were administered intravenously at 20 mg/kg as done in the pharmacokinetics experiments above. […] Each inhibitor produced a marked increase in volume and reduction in osmolality in urine collected over 0-3 h.
In a separate set of studies UTAinh-E02 was tested in control, hydrated rats.

[2] = Inhibitor permeability across MDCK cell monolayers (LC/MS); assay type: in vitro ADME, canine; settings: dog; MDCK monolayers on porous filters, 20 μM; read-out: transepithelial permeability coefficient
Method: UT-A1 expressing MDCK cells were grown on 12-mm diameter collagen-coated Transwell inserts (0.4 μm pore size; Costar, Costar, N.Y.) to form tight monolayers (resistance>500 Ωcm^2), as described (see, e.g., Levin et al. (2007) FASEB J. 21, 551-563). Urea flux in the basolateral-to-apical direction was measured in response to a 15 mM urea gradient in which PBS containing forskolin (10 μM), with or without UT-A1 inhibitor and 0.7 mM phloretin, was added to both the apical-facing (0.2 mL) and basal-facing (2 mL) surfaces. After 30 min the basal-facing solution was replaced by PBS containing test compound+15 mM urea. Apical fluid samples (5 μL) were collected at specified times for enzymatic assay of urea (QUANTICHROME Urea Assay Kit; BioAssay Systems, Hayward, Calif.). To measure inhibitor permeability across MDCK cell layers, compounds (20 μM) were added on the basal-facing surface and fluid samples (20 μL) from the apical-facing surface were collected at different time points and analyzed by LC/MS.
To further evaluate the potential site of inhibitor action, the kinetics of UT-A1 inhibition was measured by assay of UT-A1 inhibition at different times after compound addition. […] To assess inhibitor membrane permeability transport of UTAinh-E02 and UTAinh-F11 across MDCK monolayers grown on porous filters by LC/MS was measured. Transport of UTAinh-F11 was much faster than that of UTAinh-E02 (FIG. 3C, right lower panel), with computed transepithelial permeability coefficients of […] and 1.1×10^−5 cm/s, respectively. From surface-to-volume considerations, the equilibration times were computed of UTAinh-E02 and UTAinh-F11 to be 250 and 14 s, respectively, in MDCK cells, which are consistent with intracellular sites of action of both inhibitors.

Sequence of PIM-1 kinase (P11309 whole entry): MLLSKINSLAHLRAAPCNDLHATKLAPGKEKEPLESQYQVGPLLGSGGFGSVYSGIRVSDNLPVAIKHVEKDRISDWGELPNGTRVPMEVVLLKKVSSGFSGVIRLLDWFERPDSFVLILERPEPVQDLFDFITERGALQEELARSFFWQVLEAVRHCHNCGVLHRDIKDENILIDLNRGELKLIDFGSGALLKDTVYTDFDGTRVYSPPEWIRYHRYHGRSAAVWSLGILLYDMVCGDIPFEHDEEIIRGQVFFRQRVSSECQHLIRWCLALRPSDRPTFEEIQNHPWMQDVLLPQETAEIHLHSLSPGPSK

Row | Structure (SMILES) | PIM-1 kinase inhibitor potency (PIM-1 kinase) | toxicity (MDCK cells) | short-circuit current [1] | urine osmolality (rats; 0-3 h) | urine volume (rats; 0-3 h) | urine osmolality (rats; 3-6 h collection) | urine volume (rats; 3-6 h collection) | ratio of urea vs. non-urea solutes in urine (rats; dDAVP rats, after inhibitor treatment) | Papp B→A at 20 μM [2]
1 | CC(=O)Nc1ccc(-c2csc(-c3c[nH]c4ccccc34)n2)cc1 [UTA1inh-E02, N-(4-(2-(1H-indol-3-yl)thiazol-4-yl)phenyl)acetamide] | micromolar potency | little toxicity | Neither inhibitor at 20 μM altered short-circuit current | reduced | significantly increased | returned to near baseline | returned to near baseline | increased | 
2 | COc1ccc(C)cc1S(=O)(=O)Nc1ccc(Cl)c(N2CCCS2(=O)=O)c1 [UTA1inh-F11, N-[4-Chloro-3-(1,1-dioxido-1,2-thiazolidin-2-yl)phenyl]-2-methoxy-5-methylbenzene-sulfonamide] |  | little toxicity | Neither inhibitor at 20 μM altered short-circuit current |  |  |  |  |  | 11 ×10⁻⁶ cm/s
